Data published in PMC11494886, “Discovery and design of molecular glue enhancers of CDK12–DDB1 interactions for targeted degradation of cyclin K” (RSC Chemical Biology, 2024).

Key:
HEK-293T cells = assay: CellTiter-Glo viability assay, WT HEK-293T; assay type: cell-based; conditions: Homo sapiens, 72 hours, read-out: EC50 cell viability
Text: MDA-MB-231 (human triple-negative breast cancer cells) and HEK293T (human embryonic kidney cells) were purchased from the American type culture collection (ATCC) and maintained in Dulbecco's modified Eagle's medium (DMEM) (Gibco) supplemented with 10% (v/v) heat-inactivated fetal bovine serum (FBS) (Gibco) and penicillin/streptomycin (100 U mL^−1 each). HiBiT-CCNK KI A549 cells, purchased from Promega, were maintained in F12 medium supplemented with 10% (v/v) heat-inactivated fetal bovine serum (FBS) (Gibco) and penicillin/streptomycin (100 U mL^−1 each). DDB1-knockdown MDA-MB-231 and DDB1-knockdown HEK293T cell lines were maintained in the same media formulation as their corresponding wild-type cell lines. All cell lines were cultured at 37 °C in an incubator with CO2 levels maintained at 5%.
Cell viability was measured by Cell Titer Glo assay kit (Promega, USA). EC50 was determined from the nonlinear regression and a four-parameter algorithm on the GraphPad Prism software.

cyclin K = assay: Immunoblot of cyclin K levels in MDA-MB-231 cells; assay type: cell-based, human; conditions: SR-4835 500 nM, SR-4784 1-2 μM 2 hours, SR-4784-PAP 2 μM 2 hours
Method: THZ531 was used as a negative control as it is known to make a covalent bond with Cys1039 in a C-terminal extension of the kinase domain, thereby preventing this helix-loop-helix (HLH)-like fold from binding in a cleft between the DDB1 BPA and BPC domains (Fig. 1B, right panels). […] An immunofluorescence-based assay developed for visualizing loss of nuclear cyclin K also confirmed the above observations (Fig. 1H and Fig. S1, ESI ^†).
Total cell lysates were prepared using RIPA lysis buffer (Millipore Sigma) supplemented with protease and phosphatase inhibitors (Roche). Protein concentrations were estimated using the BCA protein assay kit (Pierce, Thermo Fisher Scientific). Equal amounts of proteins were separated using NuPAGE 4–12% Bis-Tris gels (Thermo Fisher Scientific). For CLICK chemistry pulldown experiments, proteins in the eluates were resolved using 3–8% Tris–acetate gels (Thermo Fisher Scientific). Proteins were transferred to nitrocellulose membranes using NuPAGE transfer buffer (Thermo Fisher Scientific). Membranes were blocked in LI-COR blocking buffer for 1 hour at room temperature and then probed with primary antibodies diluted in the same blocking buffer overnight at 4 °C. To detect the primary antibodies, membranes were incubated with IR-680 or IR-800 conjugated secondary antibodies (LI-COR) diluted in LI-COR blocking buffer at room temperature for 1 hour. Washes with 0.01% Tween-phosphate buffer were performed after primary and secondary antibody incubation steps. Signals from the membrane were recorded by scanning on a LI-COR Odyssey imager. Bands were quantified using Image Studio Lite (LI-COR Biosciences) or the ImageJ program.
To visualize the degradation of cyclin K, total cell lysates were subjected to SDS-PAGE and western blotting.

Cdk12/CycK and DDB1ΔB = target: T1, Cdk12/CycK and DDB1ΔB (Homo sapiens, UniProt Q16531+Q9NYV4, DEL396-705); assay: Analytical size-exclusion chromatography of DDB1ΔB and Cdk12/CycK; assay type: binding; conditions: 20 μM proteins, 60 μM compound, vs DMSO and THZ531
T1 construct: the Cdk12 (714–1063)/CycK (1–267) complex and the DDB1ΔB protein; made in house; host or cells: Sf9 insect cells (MultiBacTurbo)
T1 sequence (Q9NYV4 714-1063, stated change not applied): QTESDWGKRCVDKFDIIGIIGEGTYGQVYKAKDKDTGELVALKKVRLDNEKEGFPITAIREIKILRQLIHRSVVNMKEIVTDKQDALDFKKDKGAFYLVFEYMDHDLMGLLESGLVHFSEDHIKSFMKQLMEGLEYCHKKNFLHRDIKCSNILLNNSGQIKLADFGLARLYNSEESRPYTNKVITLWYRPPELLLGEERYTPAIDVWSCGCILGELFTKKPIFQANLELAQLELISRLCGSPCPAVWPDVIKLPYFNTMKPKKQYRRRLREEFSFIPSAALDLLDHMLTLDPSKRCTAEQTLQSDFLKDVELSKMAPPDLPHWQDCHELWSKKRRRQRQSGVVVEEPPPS
T1 sequence (O75909 1-267 partner limits assumed): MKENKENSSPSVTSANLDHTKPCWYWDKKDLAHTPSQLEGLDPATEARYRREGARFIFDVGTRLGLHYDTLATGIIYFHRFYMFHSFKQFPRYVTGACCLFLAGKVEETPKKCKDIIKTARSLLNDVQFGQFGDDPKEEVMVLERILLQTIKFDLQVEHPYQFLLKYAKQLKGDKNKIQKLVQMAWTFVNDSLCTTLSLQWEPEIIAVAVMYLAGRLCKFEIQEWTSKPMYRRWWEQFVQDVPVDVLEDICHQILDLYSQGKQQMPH
T1 sequence (Q16531 with tags, fused parts or gaps DEL396-705): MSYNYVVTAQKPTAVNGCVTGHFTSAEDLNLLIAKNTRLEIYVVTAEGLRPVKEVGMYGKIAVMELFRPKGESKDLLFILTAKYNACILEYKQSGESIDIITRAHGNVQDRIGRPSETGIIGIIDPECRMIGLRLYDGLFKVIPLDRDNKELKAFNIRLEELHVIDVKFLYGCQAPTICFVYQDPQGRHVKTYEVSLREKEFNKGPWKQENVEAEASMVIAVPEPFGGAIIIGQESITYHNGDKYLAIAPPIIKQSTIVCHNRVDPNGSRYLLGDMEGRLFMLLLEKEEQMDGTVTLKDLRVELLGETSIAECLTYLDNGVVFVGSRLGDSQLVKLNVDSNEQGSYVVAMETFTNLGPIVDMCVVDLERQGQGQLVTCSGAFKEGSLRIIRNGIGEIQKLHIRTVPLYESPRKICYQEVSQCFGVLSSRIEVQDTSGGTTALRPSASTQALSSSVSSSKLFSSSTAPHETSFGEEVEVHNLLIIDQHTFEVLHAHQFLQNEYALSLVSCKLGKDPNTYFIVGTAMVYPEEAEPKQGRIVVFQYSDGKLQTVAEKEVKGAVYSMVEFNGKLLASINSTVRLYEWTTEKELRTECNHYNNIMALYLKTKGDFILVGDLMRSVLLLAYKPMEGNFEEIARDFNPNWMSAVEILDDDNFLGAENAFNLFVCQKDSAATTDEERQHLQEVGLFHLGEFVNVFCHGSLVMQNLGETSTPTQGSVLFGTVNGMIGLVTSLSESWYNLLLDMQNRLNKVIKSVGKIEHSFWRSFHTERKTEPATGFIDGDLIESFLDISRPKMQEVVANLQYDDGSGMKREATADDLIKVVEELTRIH
Method: Analytical size-exclusion chromatography was employed to investigate compound-induced protein–protein interactions between the heterodimeric Cdk12 (714–1063)/CycK (1–267) complex and the RING E3 ligase-associated adaptor protein DDB1ΔB. The analysis was conducted on an Agilent 1260 Infinity II HPLC system (Agilent Technologies), coupled with a Superdex 200 Increase 3.2/300 column (Cytiva), pre-equilibrated in Cdk12 SEC buffer (20 mM Hepes pH 7.8, 400 mM NaCl, 1 mM TCEP) supplemented with 1 g L^−1 carboxymethyl-dextran. Purified proteins, combined in equimolar ratios (20 μM Cdk12/CycK and DDB1ΔB, respectively) were supplemented with 3-fold molar excess of small molecular compounds. The resulting protein mixtures were diluted to a final volume of 25 μL using the kinases SEC-buffer ensuring a final DMSO concentration of 2%, followed by an incubation period of 10 min. Upon injection into the analytical system, the chromatography was conducted at a controlled flow rate of 0.05 mL min^−1, with protein absorbance monitored at 280 nm wavelength. Peak fractions were collected drop by drop and subsequently subjected to analysis via dynamic light scattering (DLS) to assess their size distribution, along with SDS-PAGE analysis to determine the composition of the protein complex.

Cn1cc(-n2cnc3c(NCc4nc5cc(Cl)c(Cl)cc5[nH]4)nc(N4CCOCC4)nc32)cn1 [SR-4835]
EC50 (HEK-293T cells): 188 nM | cyclin K degradation (immunoblot) (cyclin K): rapidly degrades cyclin K | retention time in analytical SEC (ternary complex formation) (Cdk12/CycK and DDB1ΔB): reduced retention times

CN(C)C/C=C/C(=O)Nc1ccc(C(=O)N2CCC[C@@H](Nc3ncc(Cl)c(-c4c[nH]c5ccccc45)n3)C2)cc1 [THZ531, reference compound]
EC50 (HEK-293T cells): 128 nM
